Measurements reported in PubChem BioAssay AID1963851 (Molecular Pharmacology Branch, DTP, NCI, 2024).
pIC50: −log10 of the molar value. Values joined by “and” are separate entries in the source; they are usually repeats but may differ in a detail not shown here. Equal entries are not always repeated.

Tested on: 188146-221-R-J1-PDC complex spheroid viability
Assay: Anticancer human tumor 188146-221-R-J1-PDC patient-derived colon adenocarcinoma cell line growth inhibition [POLQ]
Settings: for viability, T/C: stronger effect = lower value; for pIC50: curve of compound
Description: Multicellular complex tumor spheroid response to Polymerase (POL) inhibitors (novobiocin, ART-558, RP6685) in combination with a variety of drugs and investigational agents in selected tumor cell lines
The POL inhibitors (novobiocin, ART-558, and RP6685) were evaluated both individually and in combination with standard of care and investigational anticancer small molecules within a complex spheroid model of solid tumors. . Complex spheroids include a stromal component modeled by human endothelial cells (HUVEC) and fibroblasts modeled by human mesenchymal stem cells (MSCs). The concentration ranges selected for each drug and investigational agent were based upon clinically achievable concentrations if the clinical Cmax of the agent was known.
Compounds. The drugs and investigational agents: novobiocin (NSC847541), ART-558 (NSC835418), RP-6685 (NSC848927), peposertib (NSC802822), ceralasertib (NSC780249), elimusertib (NSC800525), camonsertib (NSC841442), AZD-1390 (NSC803789), olaparib (NSC753686), talazoparib (NSC767125), rucaparib (NSC756644), sotorasib (NSC818433), MRTX-1133 (NSC836407), SN-38 (NSC673596), topotecan (NSC609699), epotoside (NSC141540), doxorubicin (NSC123127), gemcitabine (NSC613327), 5-fluorouracil (NSC19893), paclitaxel (NSC125973), vemurafenib (NSC761431), MSA-2 (NSC828583), SN-011 (NSC837082), adavosertib (NSC754352), prexasertib (NSC758257), carboplatin (NSC241240) and oxaliplatin (NSC266046), were obtained from the National Cancer Institute (NCI) Developmental Therapeutics Program Chemical Repository (21). The FDA-approved anticancer drug set is available from the Developmental Therapeutics Program at https://dtp.cancer.gov/organization/dscb/obtaining/. […] The stock solutions were prepared in dimethyl sulfoxide (DMSO, Sigma-Aldrich, St. Louis, MO, cat. D2650), except for the platinum compounds which were prepared in saline (Quality Biological, Gaithersburg, MD, cat. 114-055-101), at 800-fold the tested concentration and stored at -70 degrees C prior to their use. All drugs and investigational agents were tested over a range starting from a high concentration at or near the clinical Cmax and decreasing in half-log increments. If the clinical Cmax for an agent had not been determined, the highest concentration tested was 10 microM, except for SN-38, which was tested at a high concentration of 1 microM.
Cell Culture. All cells were maintained in an incubator at 37 degrees C and 5% CO2 with 95% humidity. The PDC lines were cultured according to standard operating procedures established by the NCI PDMR (https://pdmr.cancer.gov). Table 3 of the manuscript, lists the cell lines along with the number of the three cell types plated to form the mct-spheroids and media for tumor cell growth. After thawing, all PDC lines, except 997537-175-T-J1-PDC and 415267-285-R-J2-PDC, were cultured in Matrigel-coated flasks prepared with a working solution of 1X Ham's F-12 nutrient mix, without supplementation (Thermo Fisher Scientific, cat. 11765054), 100 U/mL penicillin-streptomycin (Thermo Fisher Scientific, cat. 15140122), and 2.5% Matrigel (Corning Inc., Corning, NY, cat. 354248) for the first three passages. The two PDC lines 997537-175-T-J1-PDC and 415267-285-R-J2-PDC were cultured on uncoated flasks. The 857933-349-R-J2-PDC line was cultured in 6C/Colon 1B media containing advanced DMEM/F-12 (Thermo Fisher Scientific, cat. 12634028), 10 mM HEPES (Thermo Fisher Scientific, cat. 15630080), 1X GlutaMAX supplement (Thermo Fisher Scientific, cat. 35050061), 0.1 mg/mL primocin (InvivoGen, San Diego, CA, cat. ant-pm-2), 10% defined fetal bovine serum, heat inactivated (HyClone Laboratories Inc., Logan, UT, cat. SH30070.03HI), 50% L-WRN conditioned media (ATCC, cat. CRL-3276), 1.25 mM N-Acetyl-L-cysteine (Sigma-Aldrich, cat. A9165), 10 mM nicotinamide (Sigma-Aldrich, cat. N0636), 1X B-27 supplement (Thermo Fisher Scientific, cat. 17504044), 1X N-2 supplement (Thermo Fisher Scientific, cat. […]
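Note: spheroids exposed to compounds for seven days.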
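Throughout, for viability, T/C: 100% = DMSO vehicle control viability.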

Structure (SMILES) | viability, T/C (compound 0.0316 µM) | viability, T/C (compound 0.1 µM) | viability, T/C (compound 0.316 µM) | viability, T/C (compound 1 µM) | viability, T/C (compound 3.16 µM) | viability, T/C (compound 10 µM) | pIC50
C#Cc1c(F)ccc2cc(O)cc(-c3ncc4c(N5CC6CCC(C5)N6)nc(OCC56CCCN5CC(F)C6)nc4c3F)c12 (stereo unspecified) | 100% and 103% and 99.2% | 97.1% and 105% and 99.9% | 90.5% and 81.7% and 89.8% | 96.4% and 100% (2×) | 98.2% and 99.9% and 104% | 89.1% and 102% and 85.3% | < 5.00
COc1cc2cc(C(=O)CCC(=O)O)sc2cc1OC | 100% and 119% and 108% | 84.6% and 105% (2×) | 108% and 88.4% and 95% | 93% and 103% and 104% | 100% and 109% and 108% | 111% and 110% and 95.3% | < 5.00
C=CC(=O)N1CCN(c2nc(=O)n(-c3c(C)ccnc3C(C)C)c3nc(-c4c(O)cccc4F)c(F)cc23)C(C)C1 (stereo unspecified) | 113% and 101% and 99.7% | 104% and 89.7% and 107% | 95.9% and 90.8% and 87.1% | 109% and 113% and 108% | 92.2% and 92.1% and 101% | 68% and 102% and 77.7% | < 5.00
